One assay addresses T1, Human PKMYT1 (Homo sapiens, UniProt Q99640).
T1 construct: Human PKMYT1 75-362 was cloned as a TEV cleavable 6xHis fusion; 6xHis (TEV cleavable) (cleaved yes); made in house; host or cells: bacterial cells
T1 sequence (Q99640 75-362): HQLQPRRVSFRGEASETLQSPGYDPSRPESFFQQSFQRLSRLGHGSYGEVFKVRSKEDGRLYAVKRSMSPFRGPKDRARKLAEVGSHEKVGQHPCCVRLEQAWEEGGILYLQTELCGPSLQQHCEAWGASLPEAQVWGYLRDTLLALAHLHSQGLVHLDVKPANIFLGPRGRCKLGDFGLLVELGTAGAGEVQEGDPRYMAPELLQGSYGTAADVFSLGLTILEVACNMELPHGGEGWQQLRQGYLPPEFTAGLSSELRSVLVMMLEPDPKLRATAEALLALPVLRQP
Briefly: PKMYT1 biochemical ADP-Glo enzymatic assay. The note with it: ADP-Glo. The method in brief:
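Purified untagged human PKMYT1 75-362 at 15 nM final was tested in HEPES pH 7.5 with MgCl2, EGTA, Brij-35 and 1% DMSO. Intrinsic ATPase activity was measured with 500 uM ATP over 60 min at 26° C. ADP-Glo luminescence was read and IC50 fitted from 10-point, 3-fold dilution curves.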
A general note: ADP-Glo turns the ADP formed in a reaction into a luminescent signal.

A further assay addresses T2, WEE1 (Homo sapiens, UniProt P30291).
T2 construct: purchased Thermo Fisher PR7373A
Kind of assay: Selectivity versus WEE1 assay (ADP-Glo enzymatic assay). The assay is classed as biochemical. To be noted: for IC50: ADP-Glo; for PKMYT1 vs. WEE1 selectivity: fold difference in selectivity for PKMYT1 over WEE1. A digest of the protocol: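 WEE1 at 15 nM final in 50 mM HEPES pH 7.5, 10 mM MgCl2, 1 mM EGTA, 0.01% Brij-35, 1% DMSO; reaction started with 30 µM ATP, 60 min at 26 °C. ADP-Glo luminescence; IC50 from dose-response curves, replicates within 3-fold and r2 >0.9.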

Assay [1] concerns the target T3, Cellular PKMYT1 Biomarker CDK1 pT14 (Homo sapiens, UniProt Q99640).
T3 construct: read-out CDK1 phospho-T14 immunoblot
T3 sequence (Q99640 1-499): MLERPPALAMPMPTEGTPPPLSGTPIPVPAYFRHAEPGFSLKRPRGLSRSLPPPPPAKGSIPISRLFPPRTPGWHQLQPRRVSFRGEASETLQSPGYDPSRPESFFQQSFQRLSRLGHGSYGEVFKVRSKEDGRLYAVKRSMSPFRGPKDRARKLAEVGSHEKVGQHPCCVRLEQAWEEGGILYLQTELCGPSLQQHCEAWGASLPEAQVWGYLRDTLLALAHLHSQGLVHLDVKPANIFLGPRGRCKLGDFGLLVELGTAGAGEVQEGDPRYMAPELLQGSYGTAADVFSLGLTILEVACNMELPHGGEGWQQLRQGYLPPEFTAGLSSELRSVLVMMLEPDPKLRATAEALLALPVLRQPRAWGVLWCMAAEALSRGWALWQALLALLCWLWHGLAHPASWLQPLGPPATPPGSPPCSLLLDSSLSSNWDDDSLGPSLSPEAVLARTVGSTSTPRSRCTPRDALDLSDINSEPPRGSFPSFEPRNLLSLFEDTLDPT
Kind of assay: Inhibition of cellular PKMYT1 biomarker CDK1 pT14 in OVCAR 3 cells (immunoblot). The note with it: 20 hours incubation. Format: cell-based. As to the method:
To determine compound PKMYT1 IC50 in a cellular assay, OVCAR 3 cells were incubated at 37° C. in 5% CO2 atmosphere. The cells were maintained in RPMI medium supplemented with 20% foetal bovine serum, 1X non essential amino acids, 1 mM sodium pyruvate, Glutamax and insulin. Cells were seeded into 12-well plates at low density (50,000-200,000 cells per well), grown to confluence (~350-400,000 cells per well) and then treated with a range of concentrations of PKMYT1 inhibitors. The cells were incubated 20 hours and then harvested into 1X Laemmli Sample Buffer (BIORAD) without 2-mercaptoethanol, heated to 95° C. for 5 min, centrifuged and sonicated using a microprobe for 15 sec, 21W to shear the DNA.
The samples were analysed by immunoblot on a Jess Automated Western Blot System (BioTechne). The samples were separated using the 12-230 kDa Separation Module (BioTechne,) and blotted using an anti-CDK1 phospho T14 antibody (Abcam, #ab58509) and an anti-vinculin antibody (Abcam, #126002). Specific binding was detected by fluorescence using the Anti-Rabbit Detection Module (BioTechne, #DM-001), quantified using Compass for Simple Western software, and IC50 values were calculated by regression analysis in GraphPad Prism.

Where [2] appears, read: PKMYT1 kinase domain 15 nM, banded values.

Broadly, the IC50 is the concentration needed to halve the response being measured. A low value points to higher potency.

T2 sequence (P30291 whole entry): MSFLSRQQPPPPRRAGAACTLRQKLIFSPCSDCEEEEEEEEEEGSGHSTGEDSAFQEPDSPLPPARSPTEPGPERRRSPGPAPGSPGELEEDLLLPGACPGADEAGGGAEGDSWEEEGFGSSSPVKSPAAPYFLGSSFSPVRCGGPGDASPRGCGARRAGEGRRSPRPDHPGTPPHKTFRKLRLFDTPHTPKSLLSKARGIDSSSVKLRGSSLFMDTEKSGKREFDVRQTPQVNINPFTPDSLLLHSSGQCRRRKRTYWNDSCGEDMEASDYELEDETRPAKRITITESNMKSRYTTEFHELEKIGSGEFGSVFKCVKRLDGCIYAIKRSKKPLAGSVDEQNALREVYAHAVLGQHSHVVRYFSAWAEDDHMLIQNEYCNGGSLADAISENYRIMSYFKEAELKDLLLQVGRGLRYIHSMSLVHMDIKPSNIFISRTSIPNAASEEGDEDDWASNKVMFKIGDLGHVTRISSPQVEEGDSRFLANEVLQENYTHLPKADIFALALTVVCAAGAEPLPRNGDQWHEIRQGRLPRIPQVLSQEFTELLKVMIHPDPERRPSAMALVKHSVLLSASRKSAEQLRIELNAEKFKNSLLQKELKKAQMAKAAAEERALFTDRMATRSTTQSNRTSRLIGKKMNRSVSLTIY

As to `Cc1ccc(O)c(C)c1NC(=O)c1cnc(Nc2ncccc2F)s1` [BAA-411, 2-((3-fluoropyridin-2-yl)amino)-N-(3-hydroxy-2,6-dimethylphenyl)thiazole-5-carboxamide], the IC50 was less than 0.05 µM at Human PKMYT1 (setting [2]); more than 11 µM against WEE1 (WEE1 15 nM, banded values); 0.1 to 1 µM in assay [1]. Moreover, the “PKMYT1 vs. WEE1 selectivity” value at WEE1 (banded) is recorded as “Y (1000-5000 fold)”.
On the same counts, the results for `Cc1ccc(O)c(C)c1NC(=O)c1cnc(Nc2nccc3cccnc23)s1` [BAA-604, 2-((1,7-naphthyridin-8-yl)amino)-N-(3-hydroxy-2,6-dimethylphenyl)thiazole-5-carboxamide] are less than 0.05 µM, more than 11 µM, 0.1 to 1 µM and “Y (1000-5000 fold)”.
Take `Cc1cc(Nc2ncc(C(=O)Nc3c(C)ccc(O)c3C)s2)ncn1` [BAA-580, N-(3-hydroxy-2,6-dimethylphenyl)-2-((6-methylpyrimidin-4-yl)amino)thiazole-5-carboxamide]: the IC50 is less than 0.05 µM at Human PKMYT1 (setting [2]); 1 to 11 µM against WEE1 (WEE1 15 nM, banded values); 0.1 to 1 µM in assay [1]. The “PKMYT1 vs. WEE1 selectivity” value at WEE1 (banded) is listed as “X (100-<1000 fold)”.
On to `Cc1cc(Nc2ncc(C(=O)Nc3c(C)ccc(O)c3C)s2)n(C2CCCC2)n1` [BAA-231, 2-((1-cyclopentyl-3-methyl-1H-pyrazol-5-yl)amino)-N-(3-hydroxy-2,6-dimethylphenyl)thiazole-5-carboxamide], for which the IC50 was 0.05 to 1 µM against Human PKMYT1 (15 nM PKMYT1 kinase domain, 500 µM ATP, 60 minutes at 26° C., banded); more than 11 µM against WEE1 (15 nM WEE1, 60 minutes at 26° C., banded); 0.1 to 1 µM in assay [1]. Also, the “PKMYT1 vs. WEE1 selectivity” value on WEE1 (banded, ">N" = at least in this band but could be higher) was “Y (1000-5000 fold)”.
As to `Cc1cn(CC(=O)N2CCCC2)nc1Nc1ncc(C(=O)Nc2c(C)cc(Cl)c(O)c2C)s1` [BAA-553, N-(4-chloro-3-hydroxy-2,6-dimethylphenyl)-2-((4-methyl-1-(2-oxo-2-(pyrrolidin-1-yl)ethyl)-1H-pyrazol-3-yl)amino) thiazole-5-carboxamide], the IC50 against Human PKMYT1 (setting [2]) was 0.05 to 1 µM; against WEE1 (WEE1 15 nM, banded values), more than 11 µM; in assay [1] it was 0.1 to 1 µM. Also, at WEE1 (banded), the “PKMYT1 vs. WEE1 selectivity” value is given as “X (100-<1000 fold)”.
In the case of `Cc1cn(CC(=O)N(C)CCC#N)nc1Nc1ncc(C(=O)Nc2c(C)ccc(O)c2C)s1` [BAA-523, 2-((1-(2-((2-cyanoethyl)(methyl)amino)-2-oxo-ethyl)-4-methyl-1H-pyrazol-3-yl)amino)-N-(3-hydroxy-2,6-dimethylphenyl)thiazole-5-carboxamide], the IC50 against Human PKMYT1 (setting [2]) was less than 0.05 µM; against WEE1 (WEE1 15 nM, banded values) it was 1 to 11 µM; in assay [1], 0.1 to 1 µM. Further, the “PKMYT1 vs. WEE1 selectivity” value on WEE1 (banded) was “X (100-<1000 fold)”.
With `COCC(C(=O)N1CCCC1)n1cc(C)c(Nc2ncc(C(=O)Nc3c(C)ccc(O)c3C)s2)n1` (stereo not shown) [BAA-577, N-(3-Hydroxy-2.6-dimethylphenyl)-2-((1-(3-methoxy-1-oxo-1-(pyrrolidin-1-yl)propan-2-yl)-4-methyl-1H-pyrazol-3-yl)amino)thiazole-5-carboxamide], the IC50 was less than 0.05 µM on Human PKMYT1 (setting [2]); more than 11 µM at WEE1 (WEE1 15 nM, banded values); less than 0.1 µM in assay [1]. Besides, at WEE1 (banded), the “PKMYT1 vs. WEE1 selectivity” value was “X (100-<1000 fold)”.
On the same counts, the results for `COCCN(C)C(=O)Cn1cc(C)c(Nc2ncc(C(=O)Nc3c(C)ccc(O)c3C)s2)n1` [BAA-549, N-(3-Hydroxy-2,6-dimethylphenyl)-2-((1-(2-((2-methoxyethyl)(methyl)amino)-2-oxoethyl)-4-methyl-1H-pyrazol-3-yl)amino)thiazole-5-carboxamide] are less than 0.05 µM, more than 11 µM, less than 0.1 µM and “X (100-<1000 fold)”.
For `Cc1ccc(O)c(C)c1NC(=O)c1cnc(Nc2ncccc2C2CC2)s1` [BAA-412, 2-((3-cyclopropylpyridin-2-yl)amino)-N-(3-hydroxy-2,6-dimethylphenyl)thiazole-5-carboxamide] the same measures were less than 0.05 µM, more than 11 µM, 0.1 to 1 µM and “Z (>5000 fold)”.
For `Cc1cn(CC#N)nc1Nc1ncc(C(=O)Nc2c(C)ccc(O)c2C)s1` [BAA-467, 2-((1-(cyanomethyl)-4-methyl-1H-pyrazol-3-yl)amino)-N-(3-hydroxy-2,6-dimethylphenyl)thiazole-5-carboxamide] the same measures were less than 0.05 µM, 0.05 to 1 µM, less than 0.1 µM and “W (10-<100 fold)”.
For the compound `Cc1ccc(O)c(C)c1NC(=O)c1cnc(Nc2nn(C)c3ccc(C(F)(F)F)cc23)s1` [BAA-454, N-(3-hydroxy-2,6-dimethylphenyl)-2-((1-methyl-5-(trifluoromethyl)-1H-indazol-3-yl)amino)thiazole-5-carboxamide], the IC50 at Human PKMYT1 (setting [2]) is 0.05 to 1 µM; on WEE1 (WEE1 15 nM, banded values) it was more than 11 µM; in assay [1], less than 0.1 µM. In addition, the “PKMYT1 vs. WEE1 selectivity” value at WEE1 (banded) was “X (100-<1000 fold)”.
For `Cc1ccc(O)c(C)c1NC(=O)c1cnc(Nc2ncc(F)cc2F)s1` [BAA-413, 2-((3,5-difluoropyridin-2-yl)amino)-N-(3-hydroxy-2,6-dimethylphenyl)thiazole-5-carboxamide], the IC50 is less than 0.05 µM on Human PKMYT1 (setting [2]); more than 11 µM on WEE1 (WEE1 15 nM, banded values); 0.1 to 1 µM in assay [1]. In addition, at WEE1 (banded), the “PKMYT1 vs. WEE1 selectivity” value is reported as “Z (>5000 fold)”.
On the same counts, the results for `Cc1ccc(O)c(C)c1NC(=O)c1cnc(Nc2ccn(C3CCN(C)C3=O)n2)s1` (stereo not shown) [BAA-601, N-(3-hydroxy-2,6-dimethylphenyl)-2-((1-(1-methyl-2-oxopyrrolidin-3-yl)-1H-pyrazol-3-yl)amino)thiazole-5-carboxamide] are less than 0.05 µM, more than 11 µM, 0.1 to 1 µM and “X (100-<1000 fold)”.
On the same counts, the results for `Cc1cn(CC(F)F)nc1Nc1nnc(C(=O)Nc2c(C)ccc(O)c2C)s1` [BAA-464, 5-((1-(2,2-Difluoroethyl)-4-methyl-1H-pyrazol-3-yl)amino)-N-(3-hydroxy-2,6-dimethylphenyl)-1,3,4-thiadiazole-2-carboxamide] are less than 0.05 µM, more than 11 µM, 0.1 to 1 µM and “Y (1000-5000 fold)”.
On the same counts, the results for `Cc1cccnc1Nc1ncc(C(=O)Nc2c(C)ccc(O)c2C)s1` [BAA-415, N-(3-hydroxy-2,6-dimethylphenyl)-2-((3-methylpyridin-2-yl)amino)thiazole-5-carboxamide] are less than 0.05 µM, more than 11 µM, less than 0.1 µM and “X (100-<1000 fold)”.
With `Cc1ccc(O)c(C)c1NC(=O)c1cnc(Nc2nn(C)cc2Br)s1` [BAA-473, 2-((4-bromo-1-methyl-1H-pyrazol-3-yl)amino)-N-(3-hydroxy-2,6-dimethylphenyl)thiazole-5-carboxamide], the IC50 was less than 0.05 µM on Human PKMYT1 (setting [2]); 1 to 11 µM against WEE1 (WEE1 15 nM, banded values); 0.1 to 1 µM in assay [1]. For the same compound, the “PKMYT1 vs. WEE1 selectivity” value on WEE1 (banded) is on record as “X (100-<1000 fold)”.

These data come from US20260297042A1, “BIARYLAMIDE DERIVATIVES AND THEIR USE AS PKMYT1 INHIBITORS” (CANCER RESEARCH TECHNOLOGY LIMITED, priority 2023, published 2026).
